In US20150148551A1, “GENISTEIN FOR REDUCING LEVELS OF STORAGE COMPOUNDS IN THE TREATMENT AND/OR PREVENTION OF LYSOSOMAL STORAGE DISEASES (LSDS)” (3G THERAPEUTICS, INC., priority 2012, published 2015):

Experiments:
[1] = test system: HYAL3; experiment: DNA microarray, HYAL3 expression in fibroblasts exposed to genistein; format: cell-based, human; conditions: for HYAL3 fold change Average: 48 h vs DMSO
Experimental: (§1) The experiments were conducted to characterise the transcriptomic profile of human fibroblast cells exposed to genistein, and in particular to determine the expression of genes encoding lysosomal enzymes involved in metabolism (i.e. synthesis and degradation) of organic substances. The absence or deficiency of these enzymes' activity is responsible for occurrence of various lysosomal storage diseases (LSD) (including MPS). The tested hypothesis assumed that genistein influences the expression of many genes, among which there are genes coding for enzymes required in metabolism of compounds, which are pathologically stored in LSD. The results provide important information regarding genistein action on the molecular level within the range of gene expression modulation by this substance. The experiment was conducted in biological quintuplicates. Human dermal fibroblasts (HDFa) were exposed in vitro for 1, 24 or 48 hours to: 30, 60 or 100 μM of genistein; 0.05% DMSO (K1); or were untreated (control cells) (K2), and total RNA was isolated and analysed.
(§2) Fibroblast cells were grown in Dulbecco (DMEM) medium supplemented with 10% fetal bovine serum (FBS) with the addition of 1% antibiotics and anti-fungal agents at 37° C. in humidified atmosphere of 5% CO2, until the required confluency was obtained.
(§3) To determine the effect of tested compound on the transcriptom of the fibroblast cells, the growth medium was replaced with fresh medium, either non-supplemented (0.05% DMSO), or containing genistein (30, 60 or 100 μM, in 0.05% DMSO). The exposure was done for 1, 24 or 48 hours.
(§4) Total RNA was isolated from fibroblasts using High Pure RNA Isolation Kit according to the protocol and then it was quantitatively evaluated using Quant-It™ RiboGreen® Assay Kit.
(§5) Biotinylated cRNA was prepared using Ambion Total PrepAmp Kit for Illumina arrays.
(§6) Standard hybridization and quantitative image analysis procedures—Illumina hybridization protocol and Illumina scanning protocol, were used.
(§7) Processing of the results was done during data definition, including: background correction (using background subtraction method), normalization (using quantile normalization algorithm with Illumina GenomeStudio software package: gene expression module version 1.9.0) and summarization (using method, which sums the values of signal intensities from a set of probes).

[2] = test system: FUCA1; experiment: DNA microarray, FUCA1 expression in fibroblasts exposed to genistein; format: cell-based, human; conditions: for FUCA1 fold change Average: 48 h vs DMSO
Experimental: as §1, §2, §3, §4, §5, §6, §7

[3] = test system: MANBA; experiment: DNA microarray, MANBA expression in fibroblasts exposed to genistein; format: cell-based, human; conditions: for MANBA fold change Average: 48 h vs DMSO
Experimental: as §1, §2, §3, §4, §5, §6, §7

[4] = test system: ASAH1; experiment: DNA microarray, ASAH1 expression in fibroblasts exposed to genistein; format: cell-based, human; conditions: for ASAH1 fold change Average: 48 h vs DMSO
Experimental: as §1, §2, §3, §4, §5, §6, §7

[5] = test system: MCOLN1; experiment: DNA microarray, MCOLN1 expression in fibroblasts exposed to genistein; format: cell-based, human; conditions: for MCOLN1 fold change Average: 48 h vs DMSO
Experimental: as §1, §2, §3, §4, §5, §6, §7

[6] = test system: ARSA; experiment: DNA microarray, ARSA expression in fibroblasts exposed to genistein; format: cell-based, human; conditions: for ARSA fold change Average: 48 h vs DMSO
Experimental: as §1, §2, §3, §4, §5, §6, §7

[7] = test system: CTSF; experiment: DNA microarray, CTSF expression in fibroblasts exposed to genistein; format: cell-based, human; conditions: for CTSF fold change Average: 48 h vs DMSO
Experimental: as §1, §2, §3, §4, §5, §6, §7

[8] = test system: CTSO; experiment: DNA microarray, CTSO expression in fibroblasts exposed to genistein; format: cell-based, human; conditions: for CTSO fold change Average: 48 h vs DMSO
Experimental: as §1, §2, §3, §4, §5, §6, §7

[9] = test system: fibroblasts from patients with MPS type I, IIIA and IIIB; conditions: cited from earlier work
[10] = test system: MPS II and III; conditions: animal tests and pilot clinical trials; cited from earlier work

## O=c1c(-c2ccc(O)cc2)coc2cc(O)cc(O)c12 [genistein, 4′,5,7-trihydroxy-3-phenylchromen-4-one]
[1]; 60 μM
  HYAL3 fold change Average: 0.9492 fold change
[1]; 100 μM, 1 h vs 0.05% DMSO
  HYAL3 fold change Average 1h100/1hK1: 1.141 fold change
[1]; 100 μM
  HYAL3 fold change Average: 1.001 fold change
[2]; 30 μM, 1 h vs 0.05% DMSO
  FUCA1 fold change Average 1h30/1hK1: 0.9984 fold change
[2]; 30 μM
  FUCA1 fold change Average: 1.3114 fold change
[2]; 60 μM, 1 h vs 0.05% DMSO
  FUCA1 fold change Average 1h60/1hK1: 1.022 fold change
[2]; 60 μM
  FUCA1 fold change Average: 1.558 fold change
[2]; 100 μM, 1 h vs 0.05% DMSO
  FUCA1 fold change Average 1h100/1hK1: 0.9945 fold change
[2]; 100 μM
  FUCA1 fold change Average: 1.634 fold change
[3]; 30 μM, 1 h vs 0.05% DMSO
  MANBA fold change Average 1h30/1hK1: 1.0095 fold change
[3]; 30 μM
  MANBA fold change Average: 1.6385 fold change
[3]; 60 μM, 1 h vs 0.05% DMSO
  MANBA fold change Average 1h60/1hK1: 1.041 fold change
[3]; 60 μM
  MANBA fold change Average: 2.173 fold change
[3]; 100 μM, 1 h vs 0.05% DMSO
  MANBA fold change Average 1h100/1hK1: 0.9489 fold change
[3]; 100 μM
  MANBA fold change Average: 2.387 fold change
[4]; 30 μM, 1 h vs 0.05% DMSO
  ASAH1 fold change Average 1h30/1hK1: 1.1419 fold change
[4]; 30 μM
  ASAH1 fold change Average: 1.0802 fold change
[4]; 60 μM, 1 h vs 0.05% DMSO
  ASAH1 fold change Average 1h60/1hK1: 1.029 fold change
[4]; 60 μM
  ASAH1 fold change Average: 1.412 fold change
[4]; 100 μM, 1 h vs 0.05% DMSO
  ASAH1 fold change Average 1h100/1hK1: 1.252 fold change
[4]; 100 μM
  ASAH1 fold change Average: 1.52 fold change
[5]; 30 μM, 1 h vs 0.05% DMSO
  MCOLN1 fold change Average 1h30/1hK1: 1.065 fold change
[5]; 60 μM, 1 h vs 0.05% DMSO
  MCOLN1 fold change Average 1h60/1hK1: 1.038 fold change
[5]; 60 μM
  MCOLN1 fold change Average: 1.439 fold change
[5]; 100 μM, 1 h vs 0.05% DMSO
  MCOLN1 fold change Average 1h100/1hK1: 1.013 fold change
[5]; 100 μM
  MCOLN1 fold change Average: 1.482 fold change
[6]; 30 μM, 1 h vs 0.05% DMSO
  ARSA fold change Average 1h30/1hK1: 0.9099 fold change
[6]; 60 μM, 1 h vs 0.05% DMSO
  ARSA fold change Average 1h60/1hK1: 0.9092 fold change
[6]; 60 μM
  ARSA fold change Average: 1.218 fold change
[6]; 100 μM, 1 h vs 0.05% DMSO
  ARSA fold change Average 1h100/1hK1: 0.963 fold change
[6]; 100 μM
  ARSA fold change Average: 1.526 fold change
[7]; 30 μM, 1 h vs 0.05% DMSO
  CTSF fold change Average 1h30/1hK1: 1.0096 fold change
[7]; 30 μM
  CTSF fold change Average: 1.417 fold change
[7]; 60 μM, 1 h vs 0.05% DMSO
  CTSF fold change Average 1h60/1hK1: 0.9505 fold change
[7]; 60 μM
  CTSF fold change Average: 1.8 fold change
[7]; 100 μM, 1 h vs 0.05% DMSO
  CTSF fold change Average 1h100/1hK1: 0.9458 fold change
[7]; 100 μM
  CTSF fold change Average: 2.066 fold change
[8]; 30 μM, 1 h vs 0.05% DMSO
  CTSO fold change Average 1h30/1hK1: 0.9973 fold change
[8]; 30 μM
  CTSO fold change Average: 1.2507 fold change
[8]; 60 μM, 1 h vs 0.05% DMSO
  CTSO fold change Average 1h60/1hK1: 1 fold change
[8]; 60 μM
  CTSO fold change Average: 1.276 fold change
[8]; 100 μM, 1 h vs 0.05% DMSO
  CTSO fold change Average 1h100/1hK1: 1.07 fold change
[8]; 100 μM
  CTSO fold change Average: 1.471 fold change
[9]
  GAG synthesis: reduces levels of GAG synthesis
  storage depositions in cells: causes disappearance of the storage depositions in cells
[10]
  effectiveness in the treatment of MPS II and III: promising effectiveness
